Assay results taken from PubChem BioAssay AID2060360 (Molecular Pharmacology Branch, DTP, NCI, 2025).
Where “and” joins values, the source holds several entries; their conditions need not be identical. Equal values may be shown once.

Tested on: 282377-053-R-J1-PDC tumor spheroids, viability
Experiment: Anticancer human tumor 282377-053-R-J1-PDC patient-derived colon adenocarcinoma cell line growth inhibition [TAK]
Details: spheroids with HUVEC and MSC; for viability, T/C: stronger effect = lower value
How it was run: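 Drug combinations, each paired with TAK-243 or ipatasertib, were tested on multi-cell spheroids of 60% malignant cells, 25% HUVEC and 15% hMSC. Top concentrations were at or near the clinical Cmax (10 microM if undetermined), decreasing by half-log; viability is given as % test/control.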
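Also: spheroids exposed to drugs for seven days before readout.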

COc1c(OCCCN2CCOCC2)ccc2c3n(c(=NC(=O)c4cnc(N)nc4)nc12)CCN3 + CC(C)NCC(C(=O)N1CCN(c2ncnc3c2C(C)CC3O)CC1)c1ccc(Cl)cc1
IC50 (curve of first compound, second compound 0.3 µM): > 1000 nM | IC50 (curve of first compound, second compound 0.949 µM): 674 nM | IC50 (curve of first compound, second compound 3 µM): 489 nM | IC50 (curve of first compound, second compound 9.49 µM): 182 nM | IC50 (curve of first compound, second compound 30 µM): 32.3 nM | viability, T/C (second compound 0.3 µM, first compound 0.00316 µM): 95% | viability, T/C (second compound 0.3 µM, first compound 0.01 µM): 96% | viability, T/C (second compound 0.3 µM, first compound 0.0316 µM): 91.8% | viability, T/C (second compound 0.3 µM, first compound 0.1 µM): 91.1% | viability, T/C (second compound 0.3 µM, first compound 0.316 µM): 87.9% | viability, T/C (second compound 0.3 µM, first compound 1 µM): 64.3% | viability, T/C (second compound 0.949 µM, first compound 0.00316 µM): 94.9% | viability, T/C (second compound 0.949 µM, first compound 0.01 µM): 87.7% | viability, T/C (second compound 0.949 µM, first compound 0.0316 µM): 87.6% | viability, T/C (second compound 0.949 µM, first compound 0.1 µM): 81.3% | viability, T/C (second compound 0.949 µM, first compound 0.316 µM): 82.7% | viability, T/C (second compound 0.949 µM, first compound 1 µM): 33.2% | viability, T/C (second compound 3 µM, first compound 0.00316 µM): 86.1% | viability, T/C (second compound 3 µM, first compound 0.01 µM): 88.3% | viability, T/C (second compound 3 µM, first compound 0.0316 µM): 80.5% | viability, T/C (second compound 3 µM, first compound 0.1 µM): 78.4% | viability, T/C (second compound 3 µM, first compound 0.316 µM): 73.4% | viability, T/C (second compound 3 µM, first compound 1 µM): 13.6% | viability, T/C (second compound 9.49 µM, first compound 0.00316 µM): 82.3% | viability, T/C (second compound 9.49 µM, first compound 0.01 µM): 79.1% | viability, T/C (second compound 9.49 µM, first compound 0.0316 µM): 73.2% | viability, T/C (second compound 9.49 µM, first compound 0.1 µM): 66.8% | viability, T/C (second compound 9.49 µM, first compound 0.316 µM): 35.4% | viability, T/C (second compound 9.49 µM, first compound 1 µM): 11.4% | viability, T/C (second compound 30 µM, first compound 0.00316 µM): 66.4% | viability, T/C (second compound 30 µM, first compound 0.01 µM): 65.8% | viability, T/C (second compound 30 µM, first compound 0.0316 µM): 48% | viability, T/C (second compound 30 µM, first compound 0.1 µM): 29.7% | viability, T/C (second compound 30 µM, first compound 0.316 µM): 8.22% | viability, T/C (second compound 30 µM, first compound 1 µM): 4.24%

CC(C)(C)c1nc(-c2cccc(NS(=O)(=O)c3c(F)cccc3F)c2F)c(-c2ccnc(N)n2)s1
viability, T/C (compound 0.0316 µM): 85.2% and 87.2% | viability, T/C (compound 0.1 µM): 84.1% and 87.2% | viability, T/C (compound 0.316 µM): 78.2% and 83.8% | viability, T/C (compound 1 µM): 78.9% and 81.5% | viability, T/C (compound 3.16 µM): 79% and 76% | viability, T/C (compound 10 µM): 69.4% and 69.9% | IC50 (curve of compound): > 10000 nM

CCCS(=O)(=O)Nc1ccc(F)c(C(=O)c2c[nH]c3ncc(-c4ccc(Cl)cc4)cc23)c1F
viability, T/C (compound 0.316 µM): 86.4% and 86.2% | viability, T/C (compound 1 µM): 82.3% and 82.7% | viability, T/C (compound 3.16 µM): 82.7% and 85.6% | viability, T/C (compound 10 µM): 21.3% and 27% | viability, T/C (compound 31.6 µM): 89.4% and 84.6% | viability, T/C (compound 100 µM): 75.5% and 94% | IC50 (curve of compound): > 100000 nM
